Patent US10856562B2, “Flavor composition and edible compositions containing same” (MARS, INCORPORATED, priority 2013, dated 2020)
“Also recorded” adds a separate entry of the source. Square brackets hold non-standard residues; d marks the D form. Ends that are not written are not given here. pGlu = O=C1CC[C@@H](C(=O)O)N1

Legend:
[1] = system: panelists; assay: Descriptive profile of umami enhancer UE-30 in solution, in-mouth (Example 5); format: in vivo, human; conditions: for Astringent, in-mouth perception / Bitter, in-mouth perception / Metallic, in-mouth perception / Mineral/Flinty, in-mouth perception / Numbing, in-mouth perception / Salt, in-mouth perception / Sour, in-mouth perception / Sweet, in-mouth perception / Umami FF, in-mouth perception / Umami/Brothy, in-mouth perception: mean score, 15-point scale
Procedure: Descriptive attributes (e.g., taste, flavor and chemical feeling factors) of four use levels of a pGlu-Val-Cys (UE-30) flavor composition peptide was determined. The four use levels were as follows: 1.0 ppb, 10.0 ppb, 100.0 ppb and 1000.0 ppb.
Data was collected for the attributes of the product in-mouth for the use levels according to the following protocol: • The samples were analyzed for flavor and aftertaste by six-nine members of a panel, trained and experienced in appearance, flavor and texture evaluation using the Spectrum™ method. Samples were evaluated across multiple panel sessions. • The strength of each attribute was rated on a 15-point scale, where 0=none and 15=very strong. • This scale incorporates the ability to use tenths of a point and therefore has the potential of 150 scale differentiations. • The scale may be expanded beyond 15 points to include extreme ratings if necessary. Attribute Perception Protocol • The panelists evaluated each sample using the following procedure • Descriptive Profiles (Flavor and Chemical Feeling Factors) of 4 levels of UE-30 (umami enhancer) • Individual data (1 replication) was collected for the flavor and chemical feeling factors of the product in-mouth Sample Preparation
The 01, 10, 100 and 1000 ppb test samples of the flavor composition peptide was prepared in water as described in the table 19.
The panelists evaluated each sample for the attributes described in table 20.

[2] = Salty taste of NaCl-reduced roasted chicken flavored rice with added peptide; format: in vivo; conditions: 50% NaCl reduction, 50 ppb peptide
Procedure: All Ingredients, except the rice, were placed into a container and mixed. The mixture was heated in a microwave for a total of one minute for two 30 second intervals. The rice and mixture were then mixed in a bowl. The cooking bowl was placed into a rice cooker and the cook cycle was started. After 36 minutes the rice was mixed and then allowed to cook for the remaining time for a total time of 49 minutes.
Three batches of rice were made: a control with 100% NaCl (4.7696 g), a sample with 50% NaCl (2.38 g), and the last sample had 50% NaCl (2.38 g) with 50 ppb of pGlu-Val-Leu.
Three batches of rice were made: a control with 100% NaCl, a sample with 50% NaCl, and a sample that had 50% NaCl (2.38 g) with 50 ppb of pGlu-Val-Val.
Two batches of rice were made: a control with 50% NaCl (2.38 g), and the other sample had 50% NaCl (2.38 g) with 50 ppb of pGlu-Val and 50 ppb of pGlu-Pro-Glu. Two stock solutions were made to be added to the rice: a 200 ppm stock solution of pGlu-Val in water and a 200 ppm stock solution of pGlu-Pro-Glu in water, as shown in table 44.
Three batches of rice were made: a control with 100% NaCl (4.7696 g), a sample with 40% NaCl (1.9 g), and the last sample had 40% NaCl (1.9 g) with 1 ppb of pGlu-Val-Leu and 1 ppb of pGlu-Val-Cys. […]

[pGlu]-Val-Cys [UE-30]
Astringent, in-mouth perception ([1]; 1.0 ppb in solution): 0.0 | Bitter, in-mouth perception ([1]; 1.0 ppb in solution): 0.0 | Metallic, in-mouth perception ([1]; 1.0 ppb in solution): 0.0 | Mineral/Flinty, in-mouth perception ([1]; 1.0 ppb in solution): 0.5 | Numbing, in-mouth perception ([1]; 1.0 ppb in solution): 0.0 | Salt, in-mouth perception ([1]; 1.0 ppb in solution): 1.9 | Sour, in-mouth perception ([1]; 1.0 ppb in solution): 0.0 | Sweet, in-mouth perception ([1]; 1.0 ppb in solution): 0.0 | Umami FF, in-mouth perception ([1]; 1.0 ppb in solution): 0.5 | Umami/Brothy, in-mouth perception ([1]; 1.0 ppb in solution): 0.7 | Level of the remaining aromatics, basic tastes and chemical feeling factors with increasing concentration ([1]; 1.0 to 1000.0 ppb, in-mouth): does not increase | Salt perception level as the concentration increases ([1]; 1.0 to 1000.0 ppb, in-mouth): increases slightly; also recorded: Shows increases | Umami feeling factor as the concentration increases ([1]; 1.0 to 1000.0 ppb, in-mouth): increases slightly; also recorded: Shows increases | Umami/brothy aromatic as the concentration increases ([1]; 1.0 to 1000.0 ppb, in-mouth): increases slightly; also recorded: Shows increases | Astringent, in-mouth perception ([1]; 10.0 ppb in solution): 0.0 | Bitter, in-mouth perception ([1]; 10.0 ppb in solution): 0.0 | Metallic, in-mouth perception ([1]; 10.0 ppb in solution): 0.0 | Mineral/Flinty, in-mouth perception ([1]; 10.0 ppb in solution): 0.7 | Numbing, in-mouth perception ([1]; 10.0 ppb in solution): 0.0 | Salt, in-mouth perception ([1]; 10.0 ppb in solution): 2.1 | Sour, in-mouth perception ([1]; 10.0 ppb in solution): 0.0 | Sweet, in-mouth perception ([1]; 10.0 ppb in solution): 0.0 | Umami FF, in-mouth perception ([1]; 10.0 ppb in solution): 1.9 | Umami/Brothy, in-mouth perception ([1]; 10.0 ppb in solution): 1.0 | Astringent, in-mouth perception ([1]; 100.0 ppb in solution): 0.0 | Bitter, in-mouth perception ([1]; 100.0 ppb in solution): 0.0 | Metallic, in-mouth perception ([1]; 100.0 ppb in solution): 0.0 | Mineral/Flinty, in-mouth perception ([1]; 100.0 ppb in solution): 0.7 | Numbing, in-mouth perception ([1]; 100.0 ppb in solution): 0.0 | Salt, in-mouth perception ([1]; 100.0 ppb in solution): 2.6 | Sour, in-mouth perception ([1]; 100.0 ppb in solution): 0.0 | Sweet, in-mouth perception ([1]; 100.0 ppb in solution): 0.0 | Umami FF, in-mouth perception ([1]; 100.0 ppb in solution): 2.7 | Umami/Brothy, in-mouth perception ([1]; 100.0 ppb in solution): 1.8 | Astringent, in-mouth perception ([1]; 1000.0 ppb in solution): 0.0 | Bitter, in-mouth perception ([1]; 1000.0 ppb in solution): 0.0 | Metallic, in-mouth perception ([1]; 1000.0 ppb in solution): 0.0 | Mineral/Flinty, in-mouth perception ([1]; 1000.0 ppb in solution): 0.6 | Numbing, in-mouth perception ([1]; 1000.0 ppb in solution): 0.0 | Salt, in-mouth perception ([1]; 1000.0 ppb in solution): 3.4 | Sour, in-mouth perception ([1]; 1000.0 ppb in solution): 0.0 | Sweet, in-mouth perception ([1]; 1000.0 ppb in solution): 0.0 | Umami FF, in-mouth perception ([1]; 1000.0 ppb in solution): 3.5 | Umami/Brothy, in-mouth perception ([1]; 1000.0 ppb in solution): 2.5

[pGlu]-Val-Val [SE-17]
Aftertaste [2]: had a salty aftertaste
